The text below walks through data of US7767196B2, “Optimized relaxivity and specificity hepatobiliary MRI contrast agent” (priority 2005, dated 2010).

The conditions of data set [1]: cited from earlier work.
The test system of a further data set is rats. The conditions noted are these: cited from earlier work.
Data set [2] is described as follows: NMRD profile / relaxometric measurements (1H longitudinal relaxivity, incl. temperature and pH dependence). It counts as physicochemical. The conditions noted are these: for R1p: 20 MHz and 25° C.; for relaxivity (NMRD profile): 20 MHz, 7.2 pH and 25° C.; for rGdH / Δ^2 / τr / τv: fitting parameter, NMRD profile. The text has this:
Relaxivity is used to describe the efficiency of a paramagnetic substance in increasing the water longitudinal relaxation rate. NMRD profiling is a direct method of measuring the proton relaxivity, and in principle it is sensitive to all of the parameters that influence relaxivity. It is the nuclear relaxation rate (1/T1) as a function of the Larmor frequency or the magnetic field, and describes the excess longitudinal proton relaxation that is caused by the presence of contrast agents as a function of the magnetic field using a field-cycling technique. The NMRD profile can probe the relaxivity mechanisms and understand how changes in the chemical structure of the complex interfere with them. The change in experimental parameters such as temperature and pressure influences the physical or chemical state of the sample, but the variation of the magnetic field has no influence on the chemistry of the sample. Thus, NMRD is a useful technique in the understanding of the numerous physiochemical parameters that determine the field dependence of proton relaxivities. The innersphere, outersphere, and second sphere contribute to the overall relaxivity and are influenced by numerous parameters, which are too complex to be well-defined by a single NMRD study; usually, reference to independent ^17O NMR relaxation rates and chemical shift is made. By the equations 2-7, several parameters that are related to the outersphere, and innersphere relaxation, such as the hydration number q, the τm, τR, τv, Δ^2, and rGdH, can be estimated.
As shown in FIGS. 5-8, all complexes have one innersphere water molecule. At low field, the electronic relaxation dominates the dipole-dipole correlation time for innersphere relaxivity and results in the first dispersion at around a […] proton Larmor frequency, while at high field, rotation relaxation dominates and the dispersion is at around 30 MHz. The higher relaxivity as compared to the clinical agents is postulated to the longer reorientational correlation time τR and the shorter rGdH. Relaxivity has a dependence on the τR at 20 MHz, which is determined by the molecular dimension.
The temperature and pH dependence of the longitudinal relaxivity were measured to study the tolerance of the complex under different physiological conditions (see FIGS. 9-10). At the low temperature under the slow exchange rate (τm>>T1M) a relatively longer τm is insignificant. The innersphere quenching is not severed and is not dominated by the outersphere mechanism at 273-278 K. Beyond 278 K the innersphere contribution increases up to 288 K. This is the τm≈T1M region, where the onset of the innersphere and the slow water exchange is not interfered with. From 288 K to 330 K, there is a gradual drop in the relaxivity due to the increase in D and T1M which causes both the innersphere and outersphere relaxivities to fall under the fast exchange condition (τm<<T1M). The relaxivity is 4.93 mM^−1s^−1at physiological temperature. […] The structural arrangement around the metal centre is not severely distorted, which allows a high stability against different pH.
NMRD profiles measure the longitudinal water proton relaxation rate as a function of magnetic fields. Measurements were performed by a Spinmaster FFC fast field cycling NMR relaxometer that covered a continuum of magnetic fields from 0.00024 to 0.47 T. The temperature was controlled by circulating Freon from an external bath and measured by a thermometer that was inserted into the Freon close to the sample. The relaxometer worked under complete control with the reproducibility of the measured T1 values estimated to be ±2%. The NMRD profiles were acquired for a 1-2 mM solution of the complex. Xylenol orange test was employed to check the absence of free Gd(III).

A short description of data set [3]: Variable-temperature 17O NMR transverse relaxation (water exchange). In kind it is physicochemical. The conditions noted are these: for τm: fitting parameter, 17O transverse relaxivity study. On the procedure: Further investigation into the transverse relaxivity changes against temperature as shown in FIG. 6 was performed to determine the exchange rate. The maximum appears at a lower temperature, which implies a faster water exchange rate. The water exchange rates of the discussed ligands are in the order of Gd-BOPTA (kex=5.0×10^6)>Gd-DTPA (kex=4.0×10^6)>Gd-DOTA (kex=3.3×10^6)>GdL (kex=1.1×10^6). As anionic complexes promote water exchange, the first three complexes are anionic species with faster water exchange rates. GdL is neutral with a lower exchange rate, but with a lower osmolality, and importantly, the highest relaxivity.
Variable-temperature ^17O NMR measurements were recorded on a JEOL EX-90 (2.1 T) spectrometer that was equipped with a 5 mm probe, using D2O for external lock of the magnetic field. Experimental settings were spectral width 10000 Hz, pulse width 7 μs, acquisition time 10 ms, 1000 scans, and no sample spinning. The solution used contained ^17O enriched water (2.6%, Yeda, Israel). The observed transverse relaxation rate (R^O2obs) was calculated from the line width of the resonance at half height (Δν1/2): R^O2obs=πΔν1/2.

Data set [4] has as its system non-tumorigenic immortalized liver cell line (MIHA). Kind of data set: Hepatocellular uptake (ICP-MS of Gd per cell). In kind it is cell-based. On the procedure: The non-tumorigenic immortalized liver cell line (MIHA) was grown and incubated in different concentrations of GdL and Gd-BOPTA. The mole of gadolinium uptake per cell under different concentrations of GdL incubation is presented as a function of concentration in FIG. 16. […] The average increase is 7.2×10^−13 mole of Gd per cell (about 1.97 times more than Gd-BOPTA) and the maximum uptake is 3.1×10^−12 mol of Gd per cell at 5 mM. There was no gadolinium ion found in the control experiments in the absence of GdL. The uptake varied slightly at the incubation concentration of less than 0.5 mM and linearly when the concentration increases from 0.5 to 5 mM. […]
The non-tumorigenic immortalized liver cell line (MIHA) (kindly provided by Dr J. R. Chowdhury at the Albert Einstein College of Medicine, New York) was grown in a 96-well plate (polystyrene, flat bottom tissue-culture treated, black with clear bottom) with Dulbecco's modified Eagle's medium (DMEM with 4 mM L-glutamine modified to contain 4.5 g l^−1 glucose and 1.5 g l^−1 sodium bicarbonate) containing 10% Bovine Calf Serum (BCS) in a 5% carbon dioxide incubator. […] The cells were exposed to 100 μl of 0.25% trypsin and harvested, then counted by hemacytometer. […] The samples were analyzed by Agilent 7500a ICP-MS with ICP-MS Top installed.

Data set [5] deals with liver. The conditions noted are these: Schima et al., J. Magn. Res. Imaging 1999; cited from earlier work.
The subject of data set [6] is hepatocytes. The conditions noted are these: cited from earlier work.
In data set [7] the test system is hepatocytes. The conditions noted are these: cited from earlier work. The source holds these as a separate data set.
The conditions of data set [8]: versus 0.29 osmol kg^−1 of body fluid; cited from earlier work.
The test system of data set [9] is liver. The conditions noted are these: 0.1 mmol kg^−1 dose, intravenous bolus; cited from earlier work.
Where [10] appears, read: 20 MHz, temperature in parentheses: 40.

As usually defined, the LD50 is the dose at which mortality reaches 50%.

The structures appear in SMILES notation. Values joined by “and” are separate entries in the source; they are usually repeats but may differ in a detail not shown here. Identical values can stand only once. Like-named read-outs stand apart in the source and are kept apart here.

As to `O=C([O-])CN1CCN(CC(=O)[O-])CCN([C@H](CO)[C@H](O)CO)CCN(CC(=O)[O-])CC1.[Gd+3]` (racemic) [Gd-DO3A-butrol, gadobutrol], the Relaxivity in [1] (setting [10]) was 3.60 (40) mM^−1 s^−1.

For `[Gd+3]` [Gd(III) aqua ion], in the data set with rats, the median lethal dose (LD50) was 0.1 to 0.2 mmol/kg.

For the molecule `CNC(=O)CN(CCN(CCN(CC(=O)[O-])CC(=O)NC)CC(=O)[O-])CC(=O)[O-].[Gd+3]` [Gd-BMA, gadodiamide], the Relaxivity in data set [1] (20 MHz and 25° C.) is 4.39 mM⁻¹ s⁻¹.

On to `COCCNC(=O)CN(CCN(CCN(CC(=O)[O-])CC(=O)NCCOC)CC(=O)[O-])CC(=O)[O-].[Gd+3]` [Gd-BMEA, gadoversetamide], for which, in [1] (setting [10]), the Relaxivity was 4.70 (40) mM^−1 s^−1.

With `CNC[C@H](O)[C@@H](O)[C@H](O)[C@H](O)CO.CNC[C@H](O)[C@@H](O)[C@H](O)[C@H](O)CO.O=C([O-])CN(CCN(CC(=O)[O-])CC(=O)O)CCN(CC(=O)O)C(COCc1ccccc1)C(=O)[O-].[Gd+3]` (stereo not shown) [Gd-BOPTA, gadobenate dimeglumine], in [2], the R1p was determined as 5.20 mM⁻¹ s⁻¹, the “relaxivity (NMRD profile)” value is 5.20 mM⁻¹ s⁻¹, the rGdH amounted to 2.96 Å and the “Δ^2” value is 4.2 E19 s^−1. For the same molecule, in [2], the τr came to 88 ps and the τv was determined as 26 ps. For the same molecule, in data set [3], the “water exchange rate kex” value is 5.0×10^6 and the τm is reported as 200 ns. In addition, in data set [4], the “dose dependence of uptake” value is recorded as “not significant”. Moreover, the Relaxivity in data set [1] (20 MHz and 25° C.) is 5.2 mM⁻¹ s⁻¹ and 5.20 mM⁻¹ s⁻¹. Besides, the hepatic intensity enhancement in the data set on liver [5] was 55%. Further, the “percentage of contrast agent excreted” value with hepatocytes [6] (humans, intravenous injection) is “over 95%”. Also, in the data set with hepatocytes [6] (humans), the “hepatic (hepatocellular) uptake” value was 3-5 % of the injected dose. Also, the hepatocellular uptake with hepatocytes [7] (rats) was 38.6%.

Take `CNC[C@H](O)[C@@H](O)[C@H](O)[C@H](O)CO.O=C([O-])CN1CCN(CC(=O)[O-])CCN(CC(=O)O)CCN(CC(=O)[O-])CC1.[Gd+3]` [Gd-DOTA, gadoterate meglumine]: in data set [2], the R1p worked out at 4.73 mM⁻¹ s⁻¹, the “relaxivity (NMRD profile)” value worked out at 4.73 mM⁻¹ s⁻¹, the rGdH came out at 3.10 Å and the “Δ^2” value was 1.3 E19 s^−1. Further, in [2], the τr is reported as 73 ps and the τv turned out to be 7.7 ps. Also, in [3], the “water exchange rate kex” value was 3.3×10^6 and the τm is 300 ns. Further, in data set [1] (20 MHz and 25° C.), the Relaxivity is 4.73 mM⁻¹ s⁻¹.

As to `CNC[C@H](O)[C@@H](O)[C@H](O)[C@H](O)CO.CNC[C@H](O)[C@@H](O)[C@H](O)[C@H](O)CO.O=C([O-])CN(CCN(CC(=O)[O-])CC(=O)O)CCN(CC(=O)[O-])CC(=O)O.[Gd+3]` [Gd-DTPA, gadopentetate dimeglumine], in data set [2], the R1p is 4.69 mM⁻¹ s⁻¹, the rGdH is given as 3.10 Å, the “Δ^2” value is recorded as 4.2 E19 s^−1 and the τr stood at 73 ps. The same molecule displayed a τv in data set [2] of 20 ps. Besides, in [3], the “water exchange rate kex” value is 4.0×10^6 and the τm is 250 ns. The Relaxivity in data set [1] (20 MHz and 25° C.) is 4.69 mM⁻¹ s⁻¹. In data set [8], the osmolality is 1.96 osmol kg^−1. The tolerance result in the data set on liver [9] is recorded as “good tolerance”.

For the molecule `CCOc1ccc(C[C@@H](CN(CCN(CC(=O)[O-])CC(=O)[O-])CC(=O)[O-])N(CC(=O)[O-])CC(=O)[O-])cc1.[Gd+3].[Na+].[Na+]` [Gd-EOB-DTPA], the “hepatic (hepatocellular) uptake” value in the data set with hepatocytes [6] (in vivo) is reported as 50 % of the injected dose. Moreover, in the data set on hepatocytes [7] (rat, in vivo), the hepatocellular uptake is 70%.

On to `CC(O)CN1CCN(CC(=O)[O-])CCN(CC(=O)[O-])CCN(CC(=O)[O-])CC1.[Gd+3]` (stereo not shown) [Gd-HP-DO3A, gadoteridol], for which the Relaxivity in data set [1] (setting [10]) is recorded as 3.70 (40) mM^−1 s^−1.
